Source: ChEMBL document CHEMBL3627608, “Crystal structures of human RIP2 kinase catalytic domain complexed with ATP-competitive inhibitors: Foundations for understanding inhibitor selectivity” (Bioorg Med Chem, 2015)

What was measured:
[1] = target: T1, Protein kinase C iota type (Homo sapiens) (UniProt P41743); assay: Inhibition of PKCiota (unknown origin) at 10 uM after 120 mins P33 radiolabeled kinase activity assay
T1 sequence (whole entry): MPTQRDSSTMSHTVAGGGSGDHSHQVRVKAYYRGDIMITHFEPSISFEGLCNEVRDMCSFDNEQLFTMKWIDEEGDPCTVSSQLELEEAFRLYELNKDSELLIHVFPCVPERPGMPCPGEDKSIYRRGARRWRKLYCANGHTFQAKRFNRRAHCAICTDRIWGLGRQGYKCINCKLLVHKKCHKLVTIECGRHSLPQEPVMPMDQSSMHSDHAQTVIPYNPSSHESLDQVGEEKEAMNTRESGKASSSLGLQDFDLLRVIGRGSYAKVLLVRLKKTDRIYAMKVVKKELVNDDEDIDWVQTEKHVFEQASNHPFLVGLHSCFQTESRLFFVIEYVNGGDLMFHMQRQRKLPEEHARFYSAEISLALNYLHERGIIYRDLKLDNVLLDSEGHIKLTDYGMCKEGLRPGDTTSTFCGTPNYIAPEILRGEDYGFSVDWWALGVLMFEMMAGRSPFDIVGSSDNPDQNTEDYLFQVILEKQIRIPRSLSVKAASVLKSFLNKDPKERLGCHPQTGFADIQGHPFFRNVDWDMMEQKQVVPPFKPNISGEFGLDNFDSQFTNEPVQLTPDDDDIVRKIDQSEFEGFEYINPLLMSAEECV

[2] = target: T2, Non-receptor tyrosine-protein kinase TNK1 (Homo sapiens) (UniProt Q13470); assay: Inhibition of TNK1 (unknown origin) at 10 uM after 120 mins P33 radiolabeled kinase activity assay
T2 sequence (whole entry): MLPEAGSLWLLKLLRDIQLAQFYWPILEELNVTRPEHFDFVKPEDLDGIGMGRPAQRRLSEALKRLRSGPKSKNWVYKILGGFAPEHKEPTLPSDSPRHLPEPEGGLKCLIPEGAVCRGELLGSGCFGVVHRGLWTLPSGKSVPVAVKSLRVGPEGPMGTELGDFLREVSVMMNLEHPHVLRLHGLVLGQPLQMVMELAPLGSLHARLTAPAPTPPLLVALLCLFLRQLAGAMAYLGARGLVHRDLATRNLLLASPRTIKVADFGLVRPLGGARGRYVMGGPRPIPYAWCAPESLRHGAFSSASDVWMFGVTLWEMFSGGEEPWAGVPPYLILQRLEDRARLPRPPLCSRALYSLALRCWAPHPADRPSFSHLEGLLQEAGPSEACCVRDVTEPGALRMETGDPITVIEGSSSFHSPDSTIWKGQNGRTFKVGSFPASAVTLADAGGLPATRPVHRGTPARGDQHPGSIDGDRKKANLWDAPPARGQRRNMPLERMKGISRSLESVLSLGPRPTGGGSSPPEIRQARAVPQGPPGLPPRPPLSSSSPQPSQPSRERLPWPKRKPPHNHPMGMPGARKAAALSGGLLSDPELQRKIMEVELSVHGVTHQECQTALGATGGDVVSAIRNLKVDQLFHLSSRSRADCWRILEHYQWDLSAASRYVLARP

[3] = target: T3, Serine/threonine-protein kinase Nek11 (Homo sapiens) (UniProt Q8NG66); assay: Inhibition of NEK11 (unknown origin) at 10 uM after 120 mins P33 radiolabeled kinase activity assay
T3 sequence (whole entry): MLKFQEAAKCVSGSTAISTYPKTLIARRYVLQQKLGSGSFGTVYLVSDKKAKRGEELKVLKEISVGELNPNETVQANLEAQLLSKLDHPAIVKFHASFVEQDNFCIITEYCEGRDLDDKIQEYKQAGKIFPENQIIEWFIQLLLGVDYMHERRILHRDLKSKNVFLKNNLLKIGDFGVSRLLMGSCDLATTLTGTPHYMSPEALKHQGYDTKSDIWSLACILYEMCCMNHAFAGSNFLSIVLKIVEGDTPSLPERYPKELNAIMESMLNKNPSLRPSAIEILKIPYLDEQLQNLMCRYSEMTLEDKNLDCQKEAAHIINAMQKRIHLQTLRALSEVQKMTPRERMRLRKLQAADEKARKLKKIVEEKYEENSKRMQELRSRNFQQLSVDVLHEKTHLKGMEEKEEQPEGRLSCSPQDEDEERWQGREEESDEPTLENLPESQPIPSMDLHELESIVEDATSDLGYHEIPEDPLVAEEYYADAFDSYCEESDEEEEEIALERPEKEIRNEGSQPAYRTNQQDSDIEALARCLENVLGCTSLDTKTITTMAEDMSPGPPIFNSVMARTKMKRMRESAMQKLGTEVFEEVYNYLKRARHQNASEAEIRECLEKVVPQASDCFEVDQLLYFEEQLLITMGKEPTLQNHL

[4] = target: G protein-coupled receptor kinase 4 (Homo sapiens) (UniProt P32298); assay: Inhibition of GRK4 (unknown origin) at 10 uM after 120 mins P33 radiolabeled kinase activity assay
[5] = target: Serine/threonine-protein kinase PAK 4 (Homo sapiens) (UniProt O96013); assay: Inhibition of PAK4 (unknown origin) at 10 uM after 120 mins P33 radiolabeled kinase activity assay
Homo sapiens = organism: Homo sapiens; assay: Inhibition of PKG1alpha (unknown origin) at 10 uM after 120 mins P33 radiolabeled kinase activity assay
[6] = target: Mitogen-activated protein kinase kinase kinase kinase 2 (Homo sapiens) (UniProt Q12851); assay: Inhibition of GCK (unknown origin) at 10 uM after 120 mins P33 radiolabeled kinase activity assay
[7] = target: Tyrosine-protein kinase FRK (Homo sapiens) (UniProt P42685); assay: Inhibition of FRK (unknown origin) at 10 uM after 120 mins P33 radiolabeled kinase activity assay
[8] = target: Mitogen-activated protein kinase 1 (Homo sapiens) (UniProt P28482); assay: Inhibition of ERK2 (unknown origin) at 10 uM after 120 mins P33 radiolabeled kinase activity assay
[9] = target: Proto-oncogene tyrosine-protein kinase ROS (Homo sapiens) (UniProt P08922); assay: Inhibition of ROS (unknown origin) at 10 uM after 120 mins P33 radiolabeled kinase activity assay
[10] = target: T4, Aurora kinase A (Homo sapiens) (UniProt O14965); assay: Inhibition of Aurora A (unknown origin) at 10 uM after 120 mins P33 radiolabeled kinase activity assay
T4 sequence (whole entry): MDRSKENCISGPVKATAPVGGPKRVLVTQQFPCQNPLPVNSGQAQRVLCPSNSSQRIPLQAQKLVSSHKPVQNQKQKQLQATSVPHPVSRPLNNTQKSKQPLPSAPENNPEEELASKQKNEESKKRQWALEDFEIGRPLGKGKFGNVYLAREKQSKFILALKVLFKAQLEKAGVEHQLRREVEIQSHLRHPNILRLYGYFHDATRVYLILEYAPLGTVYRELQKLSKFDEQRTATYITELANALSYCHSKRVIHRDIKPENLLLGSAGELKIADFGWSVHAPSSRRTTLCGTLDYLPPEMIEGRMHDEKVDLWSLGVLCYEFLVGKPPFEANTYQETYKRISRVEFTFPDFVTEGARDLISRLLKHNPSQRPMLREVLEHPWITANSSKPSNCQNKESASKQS

G protein-coupled receptor kinase 4 (Homo sapiens), sequence (P32298 whole entry, looked up): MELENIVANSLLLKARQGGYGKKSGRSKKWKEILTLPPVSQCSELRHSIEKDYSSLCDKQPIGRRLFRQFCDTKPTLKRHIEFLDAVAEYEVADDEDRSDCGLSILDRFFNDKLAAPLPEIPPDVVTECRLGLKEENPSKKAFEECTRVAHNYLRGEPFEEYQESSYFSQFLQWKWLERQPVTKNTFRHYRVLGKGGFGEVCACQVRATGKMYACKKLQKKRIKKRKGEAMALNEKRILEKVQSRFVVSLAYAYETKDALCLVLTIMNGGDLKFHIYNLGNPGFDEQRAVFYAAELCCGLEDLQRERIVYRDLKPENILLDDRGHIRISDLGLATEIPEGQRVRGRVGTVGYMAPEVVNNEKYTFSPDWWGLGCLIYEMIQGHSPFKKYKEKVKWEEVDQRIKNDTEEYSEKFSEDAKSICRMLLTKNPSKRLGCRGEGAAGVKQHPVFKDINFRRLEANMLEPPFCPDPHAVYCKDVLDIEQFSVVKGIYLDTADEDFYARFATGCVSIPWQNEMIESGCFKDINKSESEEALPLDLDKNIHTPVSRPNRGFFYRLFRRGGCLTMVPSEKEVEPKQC
Serine/threonine-protein kinase PAK 4 (Homo sapiens), sequence (O96013 whole entry, looked up): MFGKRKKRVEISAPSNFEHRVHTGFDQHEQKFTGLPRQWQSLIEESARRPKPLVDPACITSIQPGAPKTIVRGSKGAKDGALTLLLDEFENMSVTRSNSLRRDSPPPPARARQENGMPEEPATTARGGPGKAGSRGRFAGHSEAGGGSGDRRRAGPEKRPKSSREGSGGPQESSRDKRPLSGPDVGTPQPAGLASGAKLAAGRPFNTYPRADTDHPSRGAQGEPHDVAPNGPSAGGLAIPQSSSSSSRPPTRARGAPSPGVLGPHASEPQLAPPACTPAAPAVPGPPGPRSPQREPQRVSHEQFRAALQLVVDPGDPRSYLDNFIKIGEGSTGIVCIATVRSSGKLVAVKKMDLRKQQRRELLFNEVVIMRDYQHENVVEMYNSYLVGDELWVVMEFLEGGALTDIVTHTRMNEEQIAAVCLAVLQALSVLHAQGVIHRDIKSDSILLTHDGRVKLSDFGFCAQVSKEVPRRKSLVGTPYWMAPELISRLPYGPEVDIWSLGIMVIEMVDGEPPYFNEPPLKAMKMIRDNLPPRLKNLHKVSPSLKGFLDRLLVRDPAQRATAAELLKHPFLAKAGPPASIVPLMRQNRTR
Proto-oncogene tyrosine-protein kinase ROS (Homo sapiens), sequence (P08922 whole entry): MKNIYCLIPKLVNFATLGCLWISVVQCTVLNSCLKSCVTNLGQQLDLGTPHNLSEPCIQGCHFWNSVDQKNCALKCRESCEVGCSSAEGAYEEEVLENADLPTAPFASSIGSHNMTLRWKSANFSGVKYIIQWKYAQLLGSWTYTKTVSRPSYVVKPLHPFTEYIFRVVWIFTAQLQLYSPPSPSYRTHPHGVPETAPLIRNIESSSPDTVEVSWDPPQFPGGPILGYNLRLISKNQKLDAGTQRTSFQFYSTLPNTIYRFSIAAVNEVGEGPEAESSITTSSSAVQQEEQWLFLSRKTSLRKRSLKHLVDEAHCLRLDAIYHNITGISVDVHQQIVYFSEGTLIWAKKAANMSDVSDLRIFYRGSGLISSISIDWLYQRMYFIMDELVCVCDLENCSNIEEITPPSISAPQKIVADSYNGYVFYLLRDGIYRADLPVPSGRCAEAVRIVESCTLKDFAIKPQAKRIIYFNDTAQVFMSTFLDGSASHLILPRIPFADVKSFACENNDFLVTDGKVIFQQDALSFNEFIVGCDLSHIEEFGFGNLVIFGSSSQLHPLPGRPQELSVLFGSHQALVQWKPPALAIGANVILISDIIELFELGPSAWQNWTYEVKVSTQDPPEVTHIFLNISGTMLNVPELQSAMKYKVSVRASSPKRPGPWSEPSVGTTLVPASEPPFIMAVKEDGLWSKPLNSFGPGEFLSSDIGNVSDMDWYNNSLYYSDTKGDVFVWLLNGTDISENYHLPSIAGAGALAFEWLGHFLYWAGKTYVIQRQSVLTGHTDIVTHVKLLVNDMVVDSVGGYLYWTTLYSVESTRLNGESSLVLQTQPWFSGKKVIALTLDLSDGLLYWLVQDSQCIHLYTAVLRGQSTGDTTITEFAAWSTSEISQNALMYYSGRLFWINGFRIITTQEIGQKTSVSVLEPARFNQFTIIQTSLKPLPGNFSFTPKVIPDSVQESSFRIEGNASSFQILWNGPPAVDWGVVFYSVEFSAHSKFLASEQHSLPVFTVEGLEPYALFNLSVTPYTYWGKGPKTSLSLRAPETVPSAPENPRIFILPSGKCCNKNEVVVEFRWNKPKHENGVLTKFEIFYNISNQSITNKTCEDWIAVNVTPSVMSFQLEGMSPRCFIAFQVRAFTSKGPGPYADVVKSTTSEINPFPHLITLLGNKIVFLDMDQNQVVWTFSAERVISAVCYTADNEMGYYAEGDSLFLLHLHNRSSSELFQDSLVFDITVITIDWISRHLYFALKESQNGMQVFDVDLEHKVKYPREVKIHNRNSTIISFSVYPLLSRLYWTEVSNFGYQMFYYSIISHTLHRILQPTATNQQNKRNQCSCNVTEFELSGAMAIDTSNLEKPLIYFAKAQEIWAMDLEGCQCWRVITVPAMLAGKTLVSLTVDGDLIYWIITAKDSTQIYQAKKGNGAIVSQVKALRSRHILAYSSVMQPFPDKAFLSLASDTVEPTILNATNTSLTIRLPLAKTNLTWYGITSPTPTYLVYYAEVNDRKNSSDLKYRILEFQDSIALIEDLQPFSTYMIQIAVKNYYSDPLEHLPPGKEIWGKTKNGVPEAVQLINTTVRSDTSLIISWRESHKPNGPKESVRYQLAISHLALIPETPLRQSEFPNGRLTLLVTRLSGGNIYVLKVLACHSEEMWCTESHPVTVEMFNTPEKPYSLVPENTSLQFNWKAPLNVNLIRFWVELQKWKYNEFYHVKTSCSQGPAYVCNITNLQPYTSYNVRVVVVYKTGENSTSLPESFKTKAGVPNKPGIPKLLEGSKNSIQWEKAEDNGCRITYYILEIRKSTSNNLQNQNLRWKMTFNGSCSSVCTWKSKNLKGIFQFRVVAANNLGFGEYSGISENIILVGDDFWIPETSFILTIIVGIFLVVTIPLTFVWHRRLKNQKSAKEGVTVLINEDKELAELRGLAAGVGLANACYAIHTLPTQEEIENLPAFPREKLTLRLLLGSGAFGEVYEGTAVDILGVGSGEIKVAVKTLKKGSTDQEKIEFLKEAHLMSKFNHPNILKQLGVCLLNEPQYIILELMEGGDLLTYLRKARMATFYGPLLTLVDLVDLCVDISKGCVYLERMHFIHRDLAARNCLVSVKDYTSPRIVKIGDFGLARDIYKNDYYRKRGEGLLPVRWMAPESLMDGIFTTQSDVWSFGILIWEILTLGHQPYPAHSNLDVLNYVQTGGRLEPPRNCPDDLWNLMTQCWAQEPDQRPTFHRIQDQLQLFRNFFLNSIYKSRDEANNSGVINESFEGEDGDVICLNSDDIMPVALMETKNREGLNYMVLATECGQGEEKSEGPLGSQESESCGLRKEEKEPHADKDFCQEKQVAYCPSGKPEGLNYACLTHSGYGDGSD
Tyrosine-protein kinase FRK (Homo sapiens), sequence (P42685 whole entry): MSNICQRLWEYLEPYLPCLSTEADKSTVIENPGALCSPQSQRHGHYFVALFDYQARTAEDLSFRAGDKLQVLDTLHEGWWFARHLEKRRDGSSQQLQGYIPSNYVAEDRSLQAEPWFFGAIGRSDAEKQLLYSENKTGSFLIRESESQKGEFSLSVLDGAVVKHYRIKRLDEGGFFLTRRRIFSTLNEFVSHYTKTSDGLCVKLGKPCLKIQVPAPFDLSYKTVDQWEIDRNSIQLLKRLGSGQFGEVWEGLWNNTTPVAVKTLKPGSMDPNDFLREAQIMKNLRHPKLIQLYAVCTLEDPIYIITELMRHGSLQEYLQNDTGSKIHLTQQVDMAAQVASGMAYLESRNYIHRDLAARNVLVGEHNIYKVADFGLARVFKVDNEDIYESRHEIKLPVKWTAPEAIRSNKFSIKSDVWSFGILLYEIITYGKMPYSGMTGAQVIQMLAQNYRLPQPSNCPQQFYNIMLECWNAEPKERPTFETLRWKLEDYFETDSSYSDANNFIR
Mitogen-activated protein kinase 1 (Homo sapiens), sequence (P28482 whole entry): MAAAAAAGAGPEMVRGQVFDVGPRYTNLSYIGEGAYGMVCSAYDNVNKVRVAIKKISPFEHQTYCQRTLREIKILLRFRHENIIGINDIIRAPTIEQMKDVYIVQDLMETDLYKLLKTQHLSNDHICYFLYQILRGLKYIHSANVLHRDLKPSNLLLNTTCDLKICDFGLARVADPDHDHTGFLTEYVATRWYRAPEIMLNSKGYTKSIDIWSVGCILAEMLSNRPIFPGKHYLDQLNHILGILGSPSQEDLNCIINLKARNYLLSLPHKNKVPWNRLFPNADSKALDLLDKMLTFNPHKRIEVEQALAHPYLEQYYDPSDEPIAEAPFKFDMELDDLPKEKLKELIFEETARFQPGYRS

inhibition [1] [%]	inhibition [2] [%]	inhibition [3] [%]	inhibition [4] [%]	inhibition [5] [%]	inhibition (Homo sapiens) [%]	inhibition [6] [%]	inhibition [7] [%]	inhibition [8] [%]	inhibition [9] [%]	inhibition [10] [%]	SMILES
9.85	95.2	89.4	-2.43	4.24	9.43	-0.78	96.9	-2.5	63.8	83.4	CS(=O)(=O)c1cccc(Nc2nccc(-c3sc(N4CCOCC4)nc3-c3cccc(NS(=O)(=O)c4c(F)cccc4F)c3)n2)c1
5.69	22.5	24.4	-0.94	5.75	-4.79	-3.21	54.5	1.34	27.9	13.9	COCCNC(=O)c1ccc2c(c1)nc(-c1cnc(-c3ccc(Cl)cc3)[nH]1)n2CCOC
4.69	89	24.4	-0.89	5.19	7.43	57.4	99	-0.63	88.7	48.4	CC(C)(C)c1cc(NC(=O)Nc2ccc(Oc3ccncc3)cc2)no1
